18 compounds from patent publication US12545659B2, “IRAK degraders and uses thereof” (Kymera Therapeutics, Inc., priority 2019, dated 2026) can be followed below.

For one test, the target named is T1, IRAK4 (Homo sapiens, UniProt Q9NWZ3).
T1 construct: endogenous in cells; host or cells: OCI-LY10
T1 sequence (Q9NWZ3 1-460): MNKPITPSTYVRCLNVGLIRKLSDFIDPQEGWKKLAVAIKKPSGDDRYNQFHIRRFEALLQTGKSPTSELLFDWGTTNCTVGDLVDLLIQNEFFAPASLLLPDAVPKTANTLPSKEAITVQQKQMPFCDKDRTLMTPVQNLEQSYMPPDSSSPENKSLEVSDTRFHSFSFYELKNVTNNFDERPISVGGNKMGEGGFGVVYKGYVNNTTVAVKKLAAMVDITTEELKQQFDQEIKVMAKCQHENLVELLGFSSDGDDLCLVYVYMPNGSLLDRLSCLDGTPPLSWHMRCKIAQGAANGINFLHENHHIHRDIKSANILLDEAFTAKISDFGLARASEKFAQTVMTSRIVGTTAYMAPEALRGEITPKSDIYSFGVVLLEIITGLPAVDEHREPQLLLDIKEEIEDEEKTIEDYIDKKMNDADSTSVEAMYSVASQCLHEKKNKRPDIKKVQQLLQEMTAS
The experiment in a line: IRAK4 MSD Degradation in OCI-LY10. The format is cell-based. The conditions noted are these: OCI-LY10 cells, 4 hrs incubation, read-out: IRAK4 degradation in OCI-LY10 at 4 hrs: DC50. An outline of the steps:
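OCI-LY10 cells treated with 8-dose, 1:3 dilution series (top final 1 to 10 μM) for 4 to 24 h at 37 °C, 5% CO2. Lysate IRAK4 quantified by MSD sandwich immunoassay (mouse 2H9 capture, rabbit Y279 detection, SULFO-TAG anti-rabbit); DC50 from three-parameter logistic fit.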
`COc1cc2nn([C@H]3CC[C@H](CN4CCC5(CC4)CC(Cc4cccc6c4n(C)c(=O)n6C4CCC(=O)NC4=O)C5)CC3)cc2cc1NC(=O)c1cccc(C(F)(F)F)n1` (stereo partly drawn) [I-109]: the DC50 was in the range of 50 to 100 nM.

For `COc1cc2nn([C@H]3CC[C@H](CN4CCC(c5cccc6c5n(C)c(=O)n6C5CCC(=O)NC5=O)CC4)CC3)cc2cc1NC(=O)c1cccc(C(F)(F)F)n1` (stereo partly drawn) [I-110], the DC50 was below 50 nM.

For the compound `COc1cc2nn([C@H]3CC[C@H](CN4CC(c5cccc6c5n(C)c(=O)n6C5CCC(=O)NC5=O)C4)CC3)cc2cc1NC(=O)c1cccc(C(F)(F)F)n1` (stereo partly drawn) [I-111], the DC50 fell in the range of 50 to 100 nM.

For `COc1cc2nn([C@H]3CC[C@H](CN4CC(c5cccc6c5n(C)c(=O)n6C5CCC(=O)NC5=O)C4)CC3)cc2cc1NC(=O)c1cccc(C(C)(C)F)n1` (stereo partly drawn) [I-112], the DC50 lay within 50 to 100 nM.

Consider `Cn1c(=O)n(C2CCC(=O)NC2=O)c2cccc(C3CN(C[C@H]4CC[C@H](n5cc6cc(NC(=O)c7cccc(C(C)(C)F)n7)c(C(F)F)cc6n5)CC4)C3)c21` (stereo partly drawn) [I-113], for which the DC50 lay in the range of 50 to 100 nM.

Take `COc1cc2nn([C@H]3CC[C@H](CN4CCC(c5cccc6c5n(C)c(=O)n6C5CCC(=O)NC5=O)CC4)CC3)cc2cc1NC(=O)c1cccc(C(C)(C)F)n1` (stereo partly drawn) [I-114]: the DC50 was 50 to 100 nM.

On to `Cn1c(=O)n(C2CCC(=O)NC2=O)c2cccc(OCC3CCN(C[C@H]4CC[C@H](n5cc6cc(NC(=O)c7cccc(C(F)(F)F)n7)c(C(F)F)cc6n5)CC4)CC3)c21` (stereo partly drawn) [I-115], for which the DC50 was below 50 nM.

With `CN(C[C@H]1CC[C@H](n2cc3cc(NC(=O)c4cnn5cccnc45)c(N4CCOCC4)cc3n2)CC1)C1CCN(Cc2cccc3c2n(C)c(=O)n3C2CCC(=O)NC2=O)CC1` (stereo partly drawn) [I-116], the DC50 was below 50 nM.

On to `COc1cc2nn([C@H]3CC[C@H](CN(C)C4CCC5(CC4)CC(Cc4cccc6c4n(C)c(=O)n6C4CCC(=O)NC4=O)C5)CC3)cc2cc1NC(=O)c1cccc(C(F)(F)F)n1` (stereo partly drawn) [I-117], for which the DC50 fell in the range of 50 to 100 nM.

Staying with this test, now noted: OCI-LY10 cells, 24 hrs incubation, read-out: IRAK4 degradation in OCI-LY10 at 24 hrs: DC50.
With `CC(C)(O)COc1cc2nn([C@H]3CC[C@H](CN4CCC5(CC4)CC(CNc4cccc6c4C(=O)N(C4CCC(=O)NC4=O)C6=O)C5)CC3)cc2cc1NC(=O)c1cccc(C(C)(C)F)n1` (stereo partly drawn) [I-118], the DC50 lay in the range of 50 to 100 nM.

Regarding `CC(C)(O)COc1cc2nn([C@H]3CC[C@H](CN4CCC5(CC4)CC(CCNc4cccc6c4C(=O)N(C4CCC(=O)NC4=O)C6=O)C5)CC3)cc2cc1NC(=O)c1cccc(C(C)(F)F)n1` (stereo partly drawn) [I-119], the DC50 was 50 to 100 nM.

In the case of `COc1cc2nn([C@H]3CC[C@H](CN4CCC5(CC4)CC(CCNc4cccc6c4C(=O)C(C4CCC(=O)NC4=O)C6=O)C5)CC3)cc2cc1NC(=O)c1ccnc(C)n1` (stereo partly drawn) [I-120], the DC50 was in the range of 50 to 100 nM.

`COc1cc2nn([C@H]3CC[C@H](CN4CCC5(CC4)CC(CCNc4cccc6c4C(=O)N(C4CCC(=O)NC4=O)C6=O)C5)CC3)cc2cc1NC(=O)c1ccc(F)c(C)n1` (stereo partly drawn) [I-121]: the DC50 was in the range of 50 to 100 nM.

For `COc1cc2nn(C3CCC(CN4CC5(CCC(CNc6cccc7c6C(=O)N(C6CCC(=O)NC6=O)C7=O)CC5)C4)CC3)cc2cc1NC(=O)c1cccc(C(C)(F)F)n1` (stereo not drawn) [I-122], the DC50 was 50 to 100 nM.

For the compound `CC(C)(O)c1cc2nn([C@H]3CC[C@H](CN4CCC5(CC4)CC(Nc4cccc6c4C(=O)N(C4CCC(=O)NC4=O)C6=O)C5)CC3)cc2cc1NC(=O)c1cccc(S(F)(F)(F)(F)F)c1` (stereo partly drawn) [I-123], the DC50 fell in the range of 50 to 100 nM.

As to `CN(C[C@H]1CC[C@H](n2cc3cc(NC(=O)c4cccc(C(F)(F)F)n4)c(C(C)(C)O)cc3n2)CC1)[C@H]1CC[C@]2(CC1)C[C@H](Nc1cccc3c1C(=O)N(C1CCC(=O)NC1=O)C3=O)C2` (stereo partly drawn) [I-124], the DC50 was below 50 nM.

Turning to `COc1cc2nn([C@H]3CC[C@H](CN4CCC5(CC4)CC(CCNc4cccc6c4C(=O)N(C4CCC(=O)NC4=O)C6=O)C5)CC3)cc2cc1NC(=O)c1ccccn1` (stereo partly drawn) [I-125], the DC50 lay within 50 to 100 nM.

With `CN(C[C@H]1CC[C@H](n2cc3cc(NC(=O)c4cccc(C(F)(F)F)n4)c(C(C)(C)O)cc3n2)CC1)[C@H]1CC[C@@]2(CC1)C[C@H](Nc1cccc3c1C(=O)N(C1CCC(=O)NC1=O)C3=O)C2` (stereo partly drawn) [I-126], the DC50 fell in the range of 50 to 100 nM.
